Test results: PubChem BioAssay AID1963863 (Molecular Pharmacology Branch, DTP, NCI, 2024)

System: 931267-113-T-J1-PDC KRAS spheroid with HUVEC/MSC, viability
Test: Anticancer human tumor 931267-113-T-J1-PDC patient-derived colon adenocarcinoma cell line growth inhibition [KRAS2]
Details: for IC50: curve of first compound; for viability, T/C: stronger effect = lower value
Outline: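 KRAS-mutant tumor cells were grown as spheroids with HUVEC endothelial cells and human MSCs as stroma. Targeted agents were tested alone and with KRAS pathway inhibitors. Doses started at or near clinical Cmax, or 10 microM, descending half-log.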

[1] = second compound 0.0316 µM, first compound 0.0316 µM
[2] = second compound 0.0316 µM, first compound 0.1 µM
[3] = second compound 0.0316 µM, first compound 0.316 µM
[4] = second compound 0.0316 µM, first compound 1 µM
[5] = second compound 0.0316 µM, first compound 3.16 µM
[6] = second compound 0.0316 µM, first compound 10 µM
[7] = second compound 0.1 µM, first compound 0.0316 µM
[8] = second compound 0.1 µM, first compound 0.1 µM
[9] = second compound 0.1 µM, first compound 0.316 µM
[10] = second compound 0.1 µM, first compound 1 µM
[11] = second compound 0.1 µM, first compound 3.16 µM
[12] = second compound 0.1 µM, first compound 10 µM
[13] = second compound 0.316 µM, first compound 0.0316 µM
[14] = second compound 0.316 µM, first compound 0.1 µM
[15] = second compound 0.316 µM, first compound 0.316 µM
[16] = second compound 0.316 µM, first compound 1 µM
[17] = second compound 0.316 µM, first compound 3.16 µM
[18] = second compound 0.316 µM, first compound 10 µM
[19] = second compound 1 µM, first compound 0.0316 µM
[20] = second compound 1 µM, first compound 0.1 µM
[21] = second compound 1 µM, first compound 0.316 µM
[22] = second compound 1 µM, first compound 1 µM
[23] = second compound 1 µM, first compound 3.16 µM
[24] = second compound 1 µM, first compound 10 µM
[25] = second compound 3.16 µM, first compound 0.0316 µM
[26] = second compound 3.16 µM, first compound 0.1 µM
[27] = second compound 3.16 µM, first compound 0.316 µM
[28] = second compound 3.16 µM, first compound 1 µM
[29] = second compound 3.16 µM, first compound 3.16 µM
[30] = second compound 3.16 µM, first compound 10 µM
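Note: compound exposure lasted 7 days before the readout.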
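Throughout, for viability, T/C: 100% = DMSO vehicle control viability.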

`COC(=O)c1ccc2c(C(=Nc3ccc(N(C)C(=O)CN4CCN(C)CC4)cc3)c3ccccc3)c(O)[nH]c2c1` + C=CC(=O)N1CCN(c2nc(OCC3CCCN3C)nc3c2CCN(c2cccc4cccc(C)c24)C3)CC1CC#N was tested, and the IC50 (second compound 0.0316 µM) was 683 nM, the IC50 (second compound 0.1 µM) was 1170 nM and the IC50 (second compound 0.316 µM) was 647 nM. For the same compound, the IC50 (second compound 1 µM) was 120 nM, the IC50 (second compound 3.16 µM) was under 31.6 nM and the viability, T/C [1] was 90.5%. The viability, T/C [2] was 87.1%, the viability, T/C [3] was 61.1% and the viability, T/C [4] was 50.7%. It also gave a viability, T/C [5] of 0.59%, a viability, T/C [6] of 0.32% and a viability, T/C [7] of 73.9%. It also gave a viability, T/C [8] of 76.4%, a viability, T/C [9] of 64.5% and a viability, T/C [10] of 57.8%. The viability, T/C [11] was 0.37%, the viability, T/C [12] was 0.38% and the viability, T/C [13] was 95%. For the same compound, the viability, T/C [14] was 88.8%, the viability, T/C [15] was 67.6% and the viability, T/C [16] was 42.8%. The viability, T/C [17] was 0.3%, the viability, T/C [18] was 0.2% and the viability, T/C [19] was 47.2%. For the same compound, the viability, T/C [20] was 63.7%, the viability, T/C [21] was 20.4% and the viability, T/C [22] was 0.52%. For the same compound, the viability, T/C [23] was 0.13%, the viability, T/C [24] was 0.19% and the viability, T/C [25] was 0.24%. For the same compound, the viability, T/C [26] was 0.16%, the viability, T/C [27] was 0.25% and the viability, T/C [28] was 0.15%. The viability, T/C [29] was 0.21% and the viability, T/C [30] was 0.22%.

`O=C(c1cc(Cc2n[nH]c(=O)c3ccccc23)ccc1F)N1CCN(C(=O)C2CC2)CC1` + C=CC(=O)N1CCN(c2nc(OCC3CCCN3C)nc3c2CCN(c2cccc4cccc(C)c24)C3)CC1CC#N gave an IC50 (second compound 0.0316 µM) of over 10000 nM, an IC50 (second compound 0.1 µM) of over 10000 nM and an IC50 (second compound 0.316 µM) of over 10000 nM. It also gave an IC50 (second compound 1 µM) of over 10000 nM, an IC50 (second compound 3.16 µM) of under 31.6 nM and a viability, T/C [1] of 91%. The viability, T/C [2] was 91.8%, the viability, T/C [3] was 90.8% and the viability, T/C [4] was 109%. It also gave a viability, T/C [5] of 113%, a viability, T/C [6] of 103% and a viability, T/C [7] of 84.7%. The viability, T/C [8] was 99.4%, the viability, T/C [9] was 81.3% and the viability, T/C [10] was 79%. It also gave a viability, T/C [11] of 73.9%, a viability, T/C [12] of 84.7% and a viability, T/C [13] of 84.6%. The viability, T/C [14] was 96.5%, the viability, T/C [15] was 87% and the viability, T/C [16] was 69.3%. For the same compound, the viability, T/C [17] was 76.1%, the viability, T/C [18] was 72.5% and the viability, T/C [19] was 72.2%. It also gave a viability, T/C [20] of 79.3%, a viability, T/C [21] of 87.2% and a viability, T/C [22] of 69.4%. For the same compound, the viability, T/C [23] was 80.2%, the viability, T/C [24] was 62.5% and the viability, T/C [25] was 0.28%. It also gave a viability, T/C [26] of 0.21%, a viability, T/C [27] of 0.3% and a viability, T/C [28] of 0.29%. For the same compound, the viability, T/C [29] was 0.28% and the viability, T/C [30] was 0.43%.
